Data on one molecule can be found in US10203334B2, “Methods and compositions related to nucleic acid binding assays” (Nubad, LLC, priority 2012, dated 2019).

The subject of experiment [1] is d(CCCCGGGG)2. In words: ITC derived binding constant. To be noted: 50 mM KCl, 10 mM SC, 0.5 mM EDTA (pH 6.0) at 25° C. The source says:
(§1) Determination of the pKa was done using chemometric analysis of the absorption profiles at various pH values of the covalently attached fluorescein moiety (Kubista, M., et al., (1993) Anal. Chem. 65, 994-998, Kubista, M., et al., (1995) Anal. Chim. Acta. 302, 121-125.2, 3). The pH dependent absorption profile of free fluorescein-neomycin was first analyzed to determine its pKa. […] The electrostatic potential (P) calculated from the shift in pKa, and the ITC derived binding constant (K). Electrostatic potential experiments performed in 100 mM NaCl, 10 mM SC, 0.5 mM EDTA at 25° C. ITC experiments performed in 50 mM KCl, 10 mM SC, 0.5 mM EDTA (pH 6.0) at 25° C. […] Fluorescein-neomycin concentration was 10 μM. Table 1 represents the pKa values determined from the inflection point of the pH dependent absorbance scans of free fluorescein-neomycin, fluorescein-neomycin with one molar equivalent d(CCCCGGGG)2 and d(GGGGCCCC)2. The electrostatic potential (Y) calculated from the shift in pKa, and the ITC derived binding constant (K).

Experiment [2] concerns d(GGGGCCCC)2. In words: ITC derived binding constant. To be noted: 50 mM KCl, 10 mM SC, 0.5 mM EDTA (pH 6.0) at 25° C.
From the text: as §1

Experiment [3] deals with 16S A-site rRNA (SEQ ID No. 1). In words: Competition dialysis. Format: binding, E. coli. To be noted: 100 nM ligand, 72 h dialysis, pH 7.0. The source says: Disclosed is the use of fluorescent aminosugar probes such as F-neo (42a) to probe a variety of nucleic acid targets. Competition dialysis was used as a nucleic acid screening technique to illustrate the binding of F-neo (42a) to different nucleic acid structures.
Competition dialysis studies using a fluorescein-neomycin conjugate (F-neo (42a)). […] Comparative binding of F-neo (42a) to 13 different nucleic acid structures was examined which included single strand nucleic acids [poly(dT), poly(A), poly(U)], duplexes [poly(dA).poly(dT), poly(rA).poly(dT), poly(rA).poly(rU), poly(dA).poly(rU), poly(dG).poly(dC), calf thymus], triplexes [poly(dA).2poly(dT), poly(rA).2poly(rU)], i-motif (polydC) and 16S A-site rRNA (SEQ ID No. 1). The amount of F-neo (42a) bound to each nucleic acid is shown as a bar graph in FIG. 13. Because all nucleic acids are dialyzed simultaneously in the same ligand solution, the amount of bound F-neo (42a) is directly proportional to its affinity for each nucleic acid. […] 200 μL of different nucleic acids (7.5 μM per monomeric unit of each polymer) was dialyzed for 72 h with 400 mL 100 nM ligand in 6 mM Na2HPO4, 2 mM NaH2PO4, 1 mM Na2EDTA, pH 7.0 and various Na+ concentrations as indicated.
F-neo (42a) prefers to bind to 16S A-site rRNA yielding a bound ligand concentration of 85 nM in 100 mM Na^+, 50 nM in 150 mM Na^+, and 15 nM in 200 mM Na^+ is shown in FIG. 15.

For `NCC1O[C@H](OC2C(O)C(OC3C(O)[C@H](N)CC(N)[C@H]3O[C@H]3OC(CN)[C@@H](O)C(O)C3N)O[C@@H]2CSCCNC(=O)CCSCC(=O)Nc2ccc(-c3c4ccc(=O)cc-4oc4cc(O)ccc34)c(C(=O)O)c2)C(N)C(O)[C@@H]1O` (some centres unmarked) [F-neo (42a), Neomycin-Fluorescein Conjugate], the “K (M^−1) × 10^5” value in experiment [1] is given as 7.97 ± 10.9 (M^−1) × 10^5; in experiment [2] it was 66.3 ± 9.7 (M^−1) × 10^5. Also, the bound ligand concentration in experiment [3] (100 mM Na^+) was found to be 85 nM; in experiment [3] (150 mM Na^+) it was 50 nM; in experiment [3] (200 mM Na^+), 15 nM.
